Structures can show the parent of a compound that is named as a salt. Non-standard residues stand in square brackets, D forms with d. Residues, ends and D or L forms follow the SMILES beside them.
System: isolated mouse vas deferens
Format: cell-based
Conditions: for Relative Potency (Morphine): RP=antilog[logD50(morphine)-logD50(test compound)]; for IC50: dose giving the response halfway between maximum response and minimum contraction, pulses at 0.1 Hz, mean of generally at least two cumulative dose response curves, read-out: Mean D50
Experimental: The compounds were examined for their ability to inhibit neurally evoked contractions of the isolated mouse vas deferens preparation (method of Hughes et al, Brain Research, 88 (1975) 296, using pulses at 0.1 Hz).
The heights of the five contractions that immediately preceded the addition of the first "dose" of test compound were measured and their mean calculated. The resultant mean contraction associated with a particular bath concentration of test compound was calculated from the heights of the 6th, 7th, 8th, 9th and 10th contractions after the addition of the appropriate "dose" of test compound, i.e. the five contractions that immediately preceded the subsequent "dose" or washout.
The mean control contraction height and the concentration related mean contraction heights were used to compute the constants in an equation based on the Langmuir Adsorption Isotherm which defined the dose response curve: [formula] where y=contraction (mm)
For each test compound the D50 was calculated, defined as the dose giving the resonse that is halfway between the maximum response and the minimum contraction of the tissue.
Generally at least two cumulative dose response curves were constructed and a mean D50 calculated.

Structure (SMILES)	Relative Potency (Morphine)	IC50 [nM]	Reversal of the inhibition of contractions by naloxone
CC(C)C[C@H](NC(=O)[C@H](Cc1ccccc1)NC(=O)CNC(=O)[C@@H](C)NC(=O)[C@@H](N)Cc1ccc(O)cc1)C(=O)O [Example 4, H.Tyr.D-Ala.Gly.Phe.Leu.OH HCl]	267	1.74	
CSCC[C@H](NC(=O)[C@H](Cc1ccccc1)NC(=O)CNC(=O)[C@@H](C)NC(=O)[C@@H](N)Cc1ccc(O)cc1)C(=O)N[C@H](C(=O)O)[C@@H](C)O [Example 14, H.Tyr.D-Ala.Gly.Phe.Met.Thr.OH HCl] (H-Y[dA]GFMT-OH)	229	2.03	
CSCC[C@H](NC(=O)[C@H](Cc1ccccc1)NC(=O)CNC(=O)[C@@H](C)NC(=O)[C@@H](N)Cc1ccc(O)cc1)C(=O)O [5(a), H.Tyr.D-Ala.Gly.Phe.Met.OH HCl]	229	2.03	
COC(=O)[C@H](CCSC)NC(=O)[C@H](Cc1ccccc1)NC(=O)CNC(=O)[C@@H](C)NC(=O)[C@@H](N)Cc1ccc(O)cc1 [5(b), H.Tyr.D-Ala.Gly.Phe.Met.OMe]	94	4.95	
CN1CC[C@]23c4c5ccc(O)c4O[C@H]2[C@@H](O)C=C[C@H]3[C@H]1C5 [Morphine, reference compound]			Reversal of the inhibition of the contractions was effected

Reference: patent US4254106A, “Biologically active amides” (priority 1976, dated 1981)
